Results published in US20140349970A1 (ABBVIE INC., priority 2009, published 2014).
Where two headings read alike, the source gives them in different places.

Biological target: T1, Syk catalytic domain (aa 356-635 with a C-terminal His-tag) (Homo sapiens, UniProt P43405)
T1 construct: His-tag (C); made in house
Test: In vitro Syk kinase activity measured by trFRET, Syk catalytic domain
Format: biochemical
Method in brief: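 Kinase reaction: 0.14 nM His-tagged catalytic domain, 0.2 μM biotin-TYR1 peptide, 0.001 mM ATP in 50 mM MOPSO pH 6.5 with MgCl2, MnCl2, DTT, BSA, vanadate, ~60 min at rt, then EDTA quench. Phosphoproduct detected by trFRET (Eu anti-pTyr antibody/streptavidin-APC, 665 nm emission); IC50 from signal in linear range.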

[1] = Syk catalytic domain (aa 356-635), trFRET, 0.001 mM ATP

Row | SMILES | IC50 [1] | IC50
1 | c1ccc(-c2nc(C3CCCCC3)n3c2cnc2[nH]ccc23)cc1 [Example 2, 1-Cyclohexyl-3-phenyl-6H-imidazo[1,5-a]pyrrolo[2,3-e]pyrazine] | 1 to 10 µM | 
2 | CN(C)C(=O)c1ccc(-c2nc(C3CCCCC3)n3c2cnc2[nH]ccc23)cc1 [AC.3.22] |  | 0.1 to 1 µM
3 | CS(=O)(=O)c1ccc(-n2c(=O)n(C3CCCCC3)c3c4cc[nH]c4ncc32)cc1 [M.1.24] | > 10 µM | 
4 | OC1(c2ccc(-c3ncn4c3cnc3[nH]ccc34)cc2)CCNCC1 [P.3.1.6] |  | < 0.1 µM
5 | Cn1ncc2cnc3[nH]c(-c4cccc(S(=O)(=O)NCCO)c4)cc3c21 [N.1.34] | < 0.1 µM | 
6 | C1=C(c2ncn3c2cnc2[nH]ccc23)CCNC1 [P.3.1.4, 3-(1,2,3,6-Tetrahydropyridin-4-yl)-6H-imidazo[1,5-a]pyrrolo[2,3-e]pyrazine] |  | > 10 µM
7 | CC(=O)N1CCC[C@H]1c1nc(-c2ccc(C(C)(C)O)cc2)c2cnc3[nH]ccc3n12 [AC.5.9] |  | 1 to 10 µM
8 | c1cc2c(ncc3c(-c4ccc(OC5CCNC5)cc4)ncn32)[nH]1 (stereo not shown) [T.3.1.5] |  | 0.1 to 1 µM
9 | CS(=O)(=O)c1ccc(-c2nc([C@H]3CCCNC3)n3c2cnc2[nH]ccc23)cc1 [N.1.61] | 0.1 to 1 µM | 
10 | Cn1ncc2cnc3[nH]c(-c4cccc5ncccc45)cc3c21 [N.2.6] | 1 to 10 µM | 
11 | Cn1ncc2cnc3[nH]c(-c4cccc(CN)c4)cc3c21 [T.3.1, (3-(1-Methyl-1,6-dihydropyrazolo[3,4-d]pyrrolo[2,3-b]pyridin-7-yl)phenyl)methanamine] | 1 to 10 µM | 
12 | CC(=O)c1cccc(-c2nc(C3CCCCC3)n3c2cnc2[nH]ccc23)c1 [AC.3.4] |  | 0.1 to 1 µM

Continued, values first:

Row | IC50 [1] | IC50 | SMILES
13 | 0.1 to 1 µM |  | CCc1c(-c2ccc(C(C)(C)O)cc2)[nH]c2ncc3cnc(C)n3c12 [M.1.9]
14 |  | 0.1 to 1 µM | Cc1nc(-c2ccc(C(C)(C)O)nc2)c2cnc3[nH]ccc3n12 [AC.1.24]
15 |  | 0.1 to 1 µM | Cc1ncccc1-c1nc(-c2ccc(C(C)(C)O)cc2)c2cnc3[nH]ccc3n12 [AC.5.3]
16 | 0.1 to 1 µM |  | CS(=O)(=O)c1cccc(-c2cc3c(ncc4cnc([C@@H]5CC[C@H](N)C5)n43)[nH]2)c1 (relative stereo) [T.1.1.5, (cis)-3-(7-(3-(Methylsulfonyl)phenyl)-6H-imidazo[1,5-a]pyrrolo[2,3-e]pyrazin-1-yl)cyclopentanamine]
17 | 1 to 10 µM |  | COc1ccc2c(c1)c(-c1cc3c(ncc4cnc(C)n43)n1COP(=O)(O)O)cn2C [Example 10, (7-(5-Methoxy-1-methyl-1H-indol-3-yl)-1-methyl-6H-imidazo[1,5-a]pyrrolo[2,3-e]pyrazin-6-yl) methyl disodium phosphate]
18 |  | 0.1 to 1 µM | COc1ccc(-c2nn(CCO)c3c2cnc2[nH]ccc23)cc1 [AU.1.3]
19 | < 0.1 µM |  | CN(C)C(=O)c1ccc2c(c1)c(-c1cc3c(ncc4cnn(C)c43)[nH]1)cn2C [J.1.8.4]
20 | < 0.1 µM |  | CC(=O)c1ccc(-c2cc3c(ncc4cnc(C(=O)N5CCCC5)n43)[nH]2)cc1 [J.1.5.1]
21 | 0.1 to 1 µM |  | COc1ccc(-c2cc3c(ncc4c(C)nc(C)n43)[nH]2)cc1 [M.1.22]
22 | < 0.1 µM |  | CN(CC(C)(C)CO)C(=O)c1ccc2c(c1)c(-c1cc3c(ncc4cnn(C)c43)[nH]1)cn2C [J.1.8.5]
